Measurements: the supplement of paper PMC10307832

Key:
Assay in all cases: relative viability (nuclei count vs DMSO), 5 days (fraction); higher = more cells survive
KIN001-266 + Linsitinib = compound: CCN1CCC(CC1)N2C=C(N=N2)CNC3=CC4=C(C(=CN=C4C(=C3)Cl)C#N)NC5=CC(=C(C=C5)F)Cl [KIN001-266] + C[C@]1(O)C[C@@H](c2nc(-c3ccc4ccc(-c5ccccc5)nc4c3)c3c(N)nccn32)C1 [Linsitinib] (partner 1 µM)
How it was run: (§1)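 After 5 days of treatment, lung cancer cells in 1536-well plates were fixed and stained in a single step (final 0.05% Triton X-100, 1% formaldehyde, 1 ug/ml Hoechst) and their nuclei counted on 4× images. Treatment had been applied by pin tool the day after seeding as one drug alone or as a fixed anchor-drug dose with five library-drug doses (not always all listed) in √10 steps. Relative viability is the nuclei count of treated wells divided by that of vehicle wells, and values are medians of duplicate plates.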

KIN001-266 + Pemetrexed = compound: CCN1CCC(CC1)N2C=C(N=N2)CNC3=CC4=C(C(=CN=C4C(=C3)Cl)C#N)NC5=CC(=C(C=C5)F)Cl [KIN001-266] + Nc1nc2[nH]cc(CCc3ccc(C(=O)N[C@@H](CCC(=O)O)C(=O)O)cc3)c2c(=O)[nH]1 [Pemetrexed] (partner 0.2 µM)
How it was run: as §1

KIN001-266 + Vorinostat = compound: CCN1CCC(CC1)N2C=C(N=N2)CNC3=CC4=C(C(=CN=C4C(=C3)Cl)C#N)NC5=CC(=C(C=C5)F)Cl [KIN001-266] + O=C(CCCCCCC(=O)Nc1ccccc1)NO [Vorinostat] (partner 1 µM)
How it was run: as §1

KIN001-266 + Olaparib = compound: CCN1CCC(CC1)N2C=C(N=N2)CNC3=CC4=C(C(=CN=C4C(=C3)Cl)C#N)NC5=CC(=C(C=C5)F)Cl [KIN001-266] + O=C(c1cc(Cc2n[nH]c(=O)c3ccccc23)ccc1F)N1CCN(C(=O)C2CC2)CC1 [Olaparib] (partner 8 µM)
How it was run: as §1

Row | Cell Line | relative viability (KIN001-266 + Linsitinib; first compound 0.08 µM) | relative viability (KIN001-266 + Linsitinib; first compound 0.253 µM) | relative viability (KIN001-266 + Linsitinib; first compound 0.8 µM) | relative viability (KIN001-266 + Linsitinib; first compound 2.53 µM) | relative viability (KIN001-266 + Linsitinib; first compound 8 µM) | relative viability (KIN001-266 + Pemetrexed; first compound 0.08 µM) | relative viability (KIN001-266 + Pemetrexed; first compound 0.253 µM) | relative viability (KIN001-266 + Pemetrexed; first compound 0.8 µM) | relative viability (KIN001-266 + Pemetrexed; first compound 2.53 µM) | relative viability (KIN001-266 + Pemetrexed; first compound 8 µM) | relative viability (KIN001-266 + Vorinostat; first compound 0.08 µM) | relative viability (KIN001-266 + Vorinostat; first compound 0.253 µM) | relative viability (KIN001-266 + Vorinostat; first compound 0.8 µM) | relative viability (KIN001-266 + Vorinostat; first compound 2.53 µM) | relative viability (KIN001-266 + Vorinostat; first compound 8 µM) | relative viability (KIN001-266 + Olaparib; first compound 0.08 µM) | relative viability (KIN001-266 + Olaparib; first compound 0.253 µM) | relative viability (KIN001-266 + Olaparib; first compound 0.8 µM) | relative viability (KIN001-266 + Olaparib; first compound 2.53 µM) | relative viability (KIN001-266 + Olaparib; first compound 8 µM)
1 | LU99A | 0.635 | 0.564 | 0.496 | 0.401 | 0.467 | 0.168 | 0.172 | 0.124 | 0.182 | 0.217 | 0.484 | 0.591 | 0.467 | 0.459 | 0.539 | 0.271 | 0.283 | 0.2 | 0.213 | 0.164
2 | LXF-289 | 0.931 | 0.945 | 0.878 | 0.968 | 0.935 | 0.839 | 0.861 | 0.855 | 0.771 | 1.01 | 0.752 | 0.79 | 0.734 | 0.814 | 0.884 | 1.01 | 1.02 | 1.03 | 1.01 | 1.03
3 | NCI-H23 | 0.626 | 0.604 | 0.591 | 0.691 | 0.55 | 0.627 | 0.634 | 0.658 | 0.643 | 0.596 | 0.7 | 0.523 | 0.667 | 0.584 | 0.551 | 0.334 | 0.303 | 0.321 | 0.309 | 0.251
4 | NCI-H322M | 0.957 | 0.987 | 0.897 | 0.855 | 0.83 | 0.598 | 0.611 | 0.628 | 0.461 | 0.666 | 0.877 | 0.91 | 0.848 | 0.758 | 0.788 | 0.802 | 0.737 | 0.764 | 0.72 | 0.698
5 | NCI-H358 | 0.695 | 0.628 | 0.821 | 0.667 | 0.33 | 0.187 | 0.163 | 0.178 | 0.158 | 0.146 | 0.663 | 0.634 | 0.759 | 0.611 | 0.262 | 0.6 | 0.556 | 0.58 | 0.458 | 0.325
6 | NCI-H441 | 0.7 | 0.454 | 0.456 | 0.565 | 0.59 | 0.251 | 0.253 | 0.233 | 0.261 | 0.248 | 0.968 | 0.765 | 0.58 | 0.617 | 0.584 | 0.504 | 0.645 | 0.562 | 0.455 | 0.444
7 | NCI-H460 | 0.673 | 0.853 | 0.899 | 0.762 | 0.539 | 0.06 | 0.0695 | 0.065 | 0.0681 | 0.0901 | 0.725 | 0.697 | 0.735 | 0.649 | 0.671 | 0.418 | 0.447 | 0.466 | 0.308 | 0.409
8 | NCI-H520 | 1.01 | 0.969 | 1.06 | 0.769 | 0.894 | 0.709 | 0.714 | 0.671 | 0.565 | 0.65 | 0.659 | 0.71 | 0.838 | 0.673 | 0.452 | 0.339 | 0.299 | 0.374 | 0.267 | 0.239
9 | NCI-H596 | 1.08 | 1.14 | 1.06 | 1.07 | 0.812 | 0.451 | 0.481 | 0.498 | 0.403 | 0.477 | 0.745 | 0.599 | 0.682 | 0.636 | 0.558 | 0.744 | 0.723 | 0.662 | 0.712 | 0.756
10 | NCI-H647 | 1.31 | 1.03 | 1.26 | 1.13 | 1.03 | 0.195 | 0.216 | 0.181 | 0.158 | 0.198 | 0.562 | 0.631 | 0.921 | 0.761 | 0.508 | 0.565 | 0.516 | 0.701 | 0.501 | 0.301
11 | NCI-H650 | 0.914 | 1.05 | 0.976 | 0.979 | 1.03 | 1.15 | 0.988 | 1.09 | 1.02 | 0.946 | 0.321 | 0.558 | 0.505 | 0.455 | 0.598 | 0.452 | 0.381 | 0.349 | 0.336 | 0.34
12 | NCI-H661 | 0.551 | 0.514 | 0.537 | 0.515 | 0.425 | 0.913 | 0.946 | 0.932 | 0.856 | 0.741 | 0.776 | 0.765 | 0.781 | 0.771 | 0.78 | 0.741 | 0.732 | 0.707 | 0.617 | 0.459
13 | NCI-H838 | 0.979 | 1.04 | 1.01 | 0.936 | 0.59 | 0.242 | 0.249 | 0.26 | 0.249 | 0.236 | 0.714 | 0.775 | 0.697 | 0.626 | 0.515 | 0.775 | 0.811 | 0.764 | 0.68 | 0.471
14 | NCI-H1355 | 0.814 | 0.803 | 0.905 | 0.779 | 0.742 | 0.987 | 0.995 | 1.1 | 1 | 1.01 | 0.615 | 0.65 | 0.636 | 0.631 | 0.62 | 0.765 | 0.769 | 0.699 | 0.716 | 0.731
15 | NCI-H1395 | 1.06 | 1.02 | 1.19 | 1.11 | 0.949 | 0.871 | 1.02 | 0.964 | 0.784 | 0.847 | 0.679 | 0.768 | 0.828 | 0.654 | 0.709 | 0.478 | 0.441 | 0.447 | 0.429 | 0.427
16 | NCI-H1437 | 1.07 | 1 | 1.03 | 1.03 | 0.583 | 0.32 | 0.329 | 0.329 | 0.3 | 0.241 | 0.931 | 0.841 | 0.797 | 0.841 | 0.572 | 0.644 | 0.649 | 0.666 | 0.582 | 0.377
17 | NCI-H1651 | 1.08 | 1.02 | 0.948 | 0.998 | 0.861 | 0.6 | 0.535 | 0.531 | 0.514 | 0.58 | 0.568 | 0.564 | 0.533 | 0.681 | 0.577 | 0.185 | 0.165 | 0.175 | 0.15 | 0.167
18 | NCI-H1666 | 1.02 | 0.861 | 0.869 | 0.825 | 0.674 | 0.861 | 0.857 | 0.881 | 0.773 | 0.856 | 1.04 | 1.06 | 1.01 | 1.03 | 1 | 0.77 | 0.754 | 0.607 | 0.739 | 0.73
19 | NCI-H1734 | 0.812 | 0.876 | 0.735 | 0.848 | 0.856 | 0.425 | 0.426 | 0.435 | 0.388 | 0.417 | 0.849 | 0.85 | 0.743 | 0.796 | 0.599 | 0.719 | 0.6 | 0.505 | 0.551 | 0.425
20 | NCI-H1755 | 1 | 0.973 | 0.965 | 0.955 | 0.844 | 0.394 | 0.459 | 0.334 | 0.407 | 0.433 | 0.726 | 0.75 | 0.7 | 0.691 | 0.763 | 0.933 | 0.865 | 0.896 | 0.864 | 0.815
21 | NCI-H1793 | 0.806 | 0.829 | 0.75 | 0.879 | 1.03 | 0.895 | 0.925 |  | 0.771 | 0.621 | 0.887 | 0.738 |  | 0.723 | 0.555 | 0.864 | 0.823 |  | 0.923 | 0.711
22 | NCI-H1915 | 1.1 | 1.1 | 1.1 | 1.06 | 0.998 | 0.507 | 0.466 | 0.504 | 0.469 | 0.575 | 0.499 | 0.484 | 0.534 | 0.509 | 0.544 | 0.253 | 0.25 | 0.241 | 0.234 | 0.211
23 | NCI-H1944 | 1.3 | 1.23 | 1.14 | 1.29 | 1.22 | 0.616 | 0.572 | 0.596 | 0.664 | 0.57 | 0.58 | 0.508 | 0.469 | 0.575 | 0.625 | 0.411 | 0.403 | 0.346 | 0.411 | 0.326
24 | NCI-H1975 | 0.981 | 1.04 | 1.08 | 1.02 | 0.958 | 0.314 | 0.305 | 0.297 | 0.285 | 0.29 | 0.693 | 0.688 | 0.716 | 0.707 | 0.604 | 0.823 | 0.81 | 0.791 | 0.734 | 0.69
25 | NCI-H1993 | 0.714 | 0.657 | 0.828 | 0.687 | 0.797 | 0.562 | 0.554 | 0.637 | 0.586 | 0.596 | 0.959 | 0.604 | 0.685 | 0.713 | 0.471 | 1.04 | 0.937 | 1.16 | 0.887 | 0.73
26 | NCI-H2009 | 1.23 | 1.12 | 1.2 | 1.16 | 1.05 | 1.03 | 1.04 | 1.01 | 0.996 | 0.903 | 0.724 | 0.736 | 0.676 | 0.653 | 0.516 | 0.721 | 0.667 | 0.657 | 0.65 | 0.321
